Experimental data taken from patent US20130302442A1, “METHODS OF USING (4S,4AS,5AR,12AS)-4-DIMETHYLAMINO-3,10,12,12A-TETRAHYDROXY-7-[(METHOXY(METHYL)AMINO)-METHYL]-1,11-DIOXO-1,4,4A,5,5A,6,11,12A-OCTAHYDRO-NAPHTHACENE-2-CARBOXYLIC ACID AMIDE” (priority 2012, published 2013).
≈ marks a conversion by molar mass, not a printed value. Like-named read-outs stand apart in the source and are kept apart here.

Legend:
K. pneumoniae = assay: In vitro MIC testing, antibacterial spectrum of activity; format: cell-based
Propionibacterium acnes = assay: In vitro MIC testing against anaerobic bacteria; format: cell-based; settings: Cutibacterium acnes
[1] = test system: Streptococcus spp. [Group C]; assay: In vitro MIC testing, antibacterial spectrum of activity; format: cell-based; settings: Streptococcus spp. [Group C] (30 isolates)
Clostridium perfringens = assay: microbe, parasite or virus in culture; format: cell-based
Bifidobacterium longum = assay: In vitro MIC testing against anaerobic bacteria; format: cell-based; settings: ATCC15707; Bifidobacterium longum 3968, ATCC 15707
Fusobacterium nucleatum = assay: In vitro MIC testing against anaerobic bacteria; format: cell-based; settings: Fusobacterium nucleatum, ATCC25586
[2] = test system: Lactobacillus acidophilus; assay: In vitro MIC testing against anaerobic bacteria; format: cell-based; settings: Lactobacillus acidophilus 0681
[3] = test system: Porphyromonas asaccharolytica; assay: In vitro MIC testing against anaerobic bacteria; format: cell-based
P. granulosum = assay: In vitro MIC testing, antibacterial spectrum of activity; format: cell-based; settings: P. granulosum [clinical isolates] (3 isolates)
Bacteroides vulgatus = assay: In vitro MIC testing against anaerobic bacteria; format: cell-based
[4] = test system: Streptococcus intermedius; assay: In vitro MIC testing against anaerobic bacteria; format: cell-based; settings: ATCC27335; Streptococcus intermedius 1203, ATCC 27335
Bifidobacterium brevi = assay: In vitro MIC testing against anaerobic bacteria; format: cell-based; settings: ATCC15698; Bifidobacterium brevi 3967, ATCC 15698
[5] = test system: Peptostreptococcus micros; assay: In vitro MIC testing against anaerobic bacteria; format: cell-based; settings: Parvimonas micra
[6] = test system: Peptostreptococcus anaerobius; assay: In vitro MIC testing against anaerobic bacteria; format: cell-based
P. aeruginosa = assay: In vitro MIC testing, antibacterial spectrum of activity; format: cell-based; settings: Pseudomonas aeruginosa; P. aeruginosa (11 isolates)
S. pyogenes = assay: as above; format: cell-based
Bacteroides ovatus = assay: In vitro MIC testing against anaerobic bacteria; format: cell-based
S. epidermidis = assay: In vitro MIC testing, antibacterial spectrum of activity; format: cell-based, Staphylococcus epidermidis; settings: for MIC50 / MIC90: Staphylococcus epidermidis; for MIC50: read-out: MIC50; for MIC90: read-out: MIC90
Bifidobacterium infantis = assay: In vitro MIC testing against anaerobic bacteria; format: cell-based; settings: ATCC15702; Bifidobacterium infantis 3966, ATCC 15702
Lactobacillus plantarum = assay: In vitro MIC testing against anaerobic bacteria; format: cell-based; settings: Lactiplantibacillus plantarum, ATCC39268; Lactobacillus plantarum 2791, ATCC 39268
Lactobacillus casei = assay: In vitro MIC testing against anaerobic bacteria; format: cell-based; settings: Lacticaseibacillus casei, ATCC393; Lactobacillus casei 1722, ATCC 393
Eikenella corrodens = assay: In vitro MIC testing against anaerobic bacteria; format: cell-based; settings: ATCC43278; Eikenella corrodens 1206, ATCC 43278; read-out: MIC
Bifidobacterium bifidum = assay: In vitro MIC testing against anaerobic bacteria; format: cell-based; settings: ATCC15696; Bifidobacterium bifidum 3965, ATCC 15696
E. coli = assay: In vitro MIC testing, antibacterial spectrum of activity; format: cell-based; settings: Escherichia coli
P. avidum = assay: as above; format: cell-based; settings: P. avidum [clinical isolates] (4 isolates)
E. faecalis = assay: as above; format: cell-based
[7] = test system: Bacteroides thetaiotaomicron; assay: In vitro MIC testing against anaerobic bacteria; format: cell-based
Clostridium difficile = assay: In vitro MIC testing against anaerobic bacteria; format: cell-based
E. faecium = assay: In vitro MIC testing, antibacterial spectrum of activity; format: cell-based; settings: for MIC / MIC50 / MIC90: Enterococcus faecium; for MIC50: read-out: MIC50; for MIC90: read-out: MIC90
S. agalactiae = assay: as above; format: cell-based
Veillonella parvula = assay: In vitro MIC testing against anaerobic bacteria; format: cell-based; settings: ATCC17745; Veillonella parvula 1272, ATCC 17745
[8] = test system: Prevotella melaninogenica; assay: In vitro MIC testing against anaerobic bacteria; format: cell-based
[9] = Klebsiella pneumoniae, K. pneumoniae (31 isolates)
[10] = S. epidermidis [MRSE] (32 isolates)
[11] = S. epidermidis [MSSE] (31 isolates)

With `CON(C)Cc1ccc(O)c2c1C[C@H]1C[C@H]3[C@H](N(C)C)C(O)=C(C(N)=O)C(=O)[C@@]3(O)C(O)=C1C2=O` [The Active, (4S,4aS,5aR,12aS)-4-dimethylamino-3,10,12,12a-tetrahydroxy-7-[(methoxy(methyl)amino)-methyl]-1,11-dioxo-1,4,4a,5,5a,6,11,12a-octahydro-naphthacene-2-carboxylic acid amide] the “MIC Range” value (K. pneumoniae; K. pneumoniae [tetS] (7 isolates)) was 16 to 64 µg/mL, the MIC50 (K. pneumoniae; [9]) was greater than 64 µg/mL and the MIC90 (K. pneumoniae; [9]) was greater than 64 µg/mL. For the same compound, the MIC (K. pneumoniae; Klebsiella pneumoniae, K. pneumoniae strain PBS # 266, tetD) was greater than 64 µg/mL, the MIC (Propionibacterium acnes) was 0.25 µg/mL (≈ 0.513 µM) and the MIC (Propionibacterium acnes; ATCC11829, Propionibacterium acnes 1286, ATCC 11829, read-out: MIC) was 1 µg/mL (≈ 2.05 µM). For the same compound, the MIC (Propionibacterium acnes; P. acnes, summary of Table 1, read-out: minimum inhibitory concentration (MIC), relatively potent activity) was no more than 4 µg/mL, the “MIC Range” value [1] was 0.12 to 16 µg/mL and the MIC50 ([1]; read-out: MIC50) was 0.25 µg/mL (≈ 0.513 µM). The MIC90 ([1]; read-out: MIC90) was 16 µg/mL (≈ 32.8 µM), the MIC (Clostridium perfringens) was 16 µg/mL (≈ 32.8 µM) and the MIC (Clostridium perfringens; read-out: MIC, high MIC values) was greater than 16 µg/mL. It also gave an MIC (Bifidobacterium longum) of 4 µg/mL (≈ 8.2 µM), an MIC (Fusobacterium nucleatum) of 0.25 µg/mL (≈ 0.513 µM) and an MIC [2] of 4 µg/mL (≈ 8.2 µM). For the same compound, the MIC [3] was 16 µg/mL (≈ 32.8 µM), the MIC ([3]; Porphyromonas asaccharolytica 3557, read-out: MIC) was 8 µg/mL (≈ 16.4 µM) and the “MIC Range” value (P. granulosum) was 1-1 μg/mL. It also gave an MIC (Bacteroides vulgatus; Bacteroides vulgatus 3494) of 16 µg/mL (≈ 32.8 µM), an MIC (Bacteroides vulgatus; Phocaeicola vulgatus) of 16 µg/mL (≈ 32.8 µM) and an MIC [4] of 1 µg/mL (≈ 2.05 µM). For the same compound, the MIC (Bifidobacterium brevi) was 1 µg/mL (≈ 2.05 µM), the MIC [5] was 0.25 µg/mL (≈ 0.513 µM) and the MIC ([5]; Peptostreptococcus micros 3545, read-out: MIC) was 1 µg/mL (≈ 2.05 µM). The MIC ([6]; Peptostreptococcus anaerobius 3526) was 2 µg/mL (≈ 4.1 µM), the MIC ([6]; Peptostreptococcus anaerobius 3531) was 4 µg/mL (≈ 8.2 µM) and the MIC50 (P. aeruginosa) was greater than 64 µg/mL. The MIC90 (P. aeruginosa) was greater than 64 µg/mL, the “MIC Range” value (S. pyogenes; S. pyogenes (32 isolates)) was 0.12 to 16 µg/mL and the “MIC Range” value (S. pyogenes; S. pyogenes [tetR] (5 isolates)) was 4 to 16 µg/mL. For the same compound, the “MIC Range” value (S. pyogenes; S. pyogenes [tetS] (5 isolates)) was “≦0.06-0.25 μg/mL”, the MIC (S. pyogenes; Streptococcus pyogenes, S. pyogenes strain PBS # 330, tetO) was 16 µg/mL (≈ 32.8 µM) and the MIC (S. pyogenes; Streptococcus pyogenes, S. pyogenes strain PBS # 792, tetM) was 4 µg/mL (≈ 8.2 µM). It also gave an MIC50 (S. pyogenes; Streptococcus pyogenes, S. pyogenes (32 isolates), read-out: MIC50) of 0.12 µg/mL (≈ 0.246 µM), an MIC90 (S. pyogenes; Streptococcus pyogenes, S. pyogenes (32 isolates), read-out: MIC90) of 8 µg/mL (≈ 16.4 µM) and an MIC (Bacteroides ovatus) of 0.25 µg/mL (≈ 0.513 µM). For the same compound, the MIC (Bacteroides ovatus; Bacteroides ovatus 3503, read-out: MIC) was 8 µg/mL (≈ 16.4 µM), the “MIC Range” value (S. epidermidis; [10]) was 0.25 to 2 µg/mL and the “MIC Range” value (S. epidermidis; [11]) was 0.12 to 2 µg/mL. It also gave an MIC50 (S. epidermidis; [10]) of 0.5 µg/mL (≈ 1.03 µM), an MIC90 (S. epidermidis; [10]) of 2 µg/mL (≈ 4.1 µM) and an MIC50 (S. epidermidis; [11]) of 0.25 µg/mL (≈ 0.513 µM). The MIC90 (S. epidermidis; [11]) was 2 µg/mL (≈ 4.1 µM), the MIC (Bifidobacterium infantis) was 0.5 µg/mL (≈ 1.03 µM) and the MIC (Lactobacillus plantarum) was 2 µg/mL (≈ 4.1 µM). The MIC (Lactobacillus casei) was 2 µg/mL (≈ 4.1 µM), the MIC (Eikenella corrodens) was 1 µg/mL (≈ 2.05 µM) and the MIC (Bifidobacterium bifidum) was 1 µg/mL (≈ 2.05 µM). The MIC (E. coli) was greater than 64 µg/mL, the MIC90 (E. coli) was greater than 64 µg/mL and the “MIC Range” value (P. avidum) was 1 to 4 µg/mL. For the same compound, the “MIC Range” value (E. faecalis; E. faecalis [VSE] (31 isolates)) was 0.25 to 32 µg/mL, the “MIC Range” value (E. faecalis; E. faecalis [tetR] (6 isolates)) was 8 to 32 µg/mL and the MIC (E. faecalis; Enterococcus faecalis, E. faecalis strain PBS # 274, tetL) was 32 µg/mL (≈ 65.6 µM). The MIC (E. faecalis; Enterococcus faecalis, E. faecalis strain PBS # 276, tetM) was 16 µg/mL (≈ 32.8 µM), the MIC (E. faecalis; Enterococcus faecalis, E. faecalis strain PBS # 949, tetS) was 8 µg/mL (≈ 16.4 µM) and the MIC50 (E. faecalis; Enterococcus faecalis, E. faecalis [VSE] (31 isolates), read-out: MIC50) was 32 µg/mL (≈ 65.6 µM). The MIC90 (E. faecalis; Enterococcus faecalis, E. faecalis [VSE] (31 isolates), read-out: MIC90) was 32 µg/mL (≈ 65.6 µM), the MIC ([7]; Bacteroides thetaiotaomicron 3399) was 0.25 µg/mL (≈ 0.513 µM) and the MIC ([7]; Bacteroides thetaiotaomicron 3496) was 16 µg/mL (≈ 32.8 µM). The MIC (Clostridium difficile; Clostridioides difficile) was 0.12 µg/mL (≈ 0.246 µM), the MIC (Clostridium difficile; Clostridium difficile 3584) was 0.12 µg/mL (≈ 0.246 µM) and the “MIC Range” value (E. faecium; E. faecium [VRE] (30 isolates)) was 0.12 to 32 µg/mL. The “MIC Range” value (E. faecium; E. faecium [VSE] (32 isolates)) was 0.12 to 32 µg/mL, the “MIC Range” value (E. faecium; E. faecium [tetR] (6 isolates)) was 8 to 32 µg/mL and the MIC (E. faecium; E. faecium strain PBS # 965, tetM) was 8 µg/mL (≈ 16.4 µM). It also gave an MIC (E. faecium; E. faecium strain PBS # 1323, tetK) of 8 µg/mL (≈ 16.4 µM), an MIC (E. faecium; E. faecium strain PBS # 1324, tetO) of 16 µg/mL (≈ 32.8 µM) and an MIC50 (E. faecium; E. faecium [VRE] (30 isolates)) of 2 µg/mL (≈ 4.1 µM). The MIC90 (E. faecium; E. faecium [VRE] (30 isolates)) was 32 µg/mL (≈ 65.6 µM), the MIC50 (E. faecium; E. faecium [VSE] (32 isolates)) was 0.5 µg/mL (≈ 1.03 µM) and the MIC90 (E. faecium; E. faecium [VSE] (32 isolates)) was 32 µg/mL (≈ 65.6 µM). The “MIC Range” value (S. agalactiae; S. agalactiae (31 isolates)) was 0.12 to 32 µg/mL, the “MIC Range” value (S. agalactiae; S. agalactiae [tetR] (7 isolates)) was 16 to 32 µg/mL and the “MIC Range” value (S. agalactiae; S. agalactiae [tetS] (3 isolates)) was 0.125 to 0.25 µg/mL. For the same compound, the MIC (S. agalactiae; Streptococcus agalactiae, S. agalactiae strain PBS # 316, tetO) was 32 µg/mL (≈ 65.6 µM), the MIC (S. agalactiae; Streptococcus agalactiae, S. agalactiae strain PBS # 897, tetM) was 16 µg/mL (≈ 32.8 µM) and the MIC90 (S. agalactiae; Streptococcus agalactiae, S. agalactiae (31 isolates), read-out: MIC90) was 16 µg/mL (≈ 32.8 µM). It also gave an MIC (Veillonella parvula) of 4 µg/mL (≈ 8.2 µM), an MIC ([8]; Prevotella melaninogenica 3437, read-out: MIC) of 32 µg/mL (≈ 65.6 µM) and an MIC ([8]; Prevotella melaninogenica 3443, read-out: MIC) of 4 µg/mL (≈ 8.2 µM).
